Tests used:
RLmale 1 cells = assay: In vitro cancer cell growth inhibitory activity by light irradiation; assay type: cell-based; conditions: 62.5-250 μM solutions, light irradiated for 40 minutes, cultured three days
Procedure: Cancer cell growth inhibitory activity in in vitro by light irradiation was measured. RLmale 1 cells (provided by Kyoto Pasteur Laboratory) were used as a cancer cell and these cells were incubated under culture conditions of 5% CO2, 95% atmosphere, at 37° C. in RPMI 1640 culture medium (Sigma Company, containing 10% fetal bovine serum) with 100 mm dish till they became 80% confluent. The water-soluble fullerene of Example 2 was dissolved in a culture medium of the same composition as used for culture of cancer cells under light shielding condition and after adjusted to the concentration of 250 μM, it was sterilized and filtered. The sterilized solution of 250 μM was diluted with a culture medium sequentially to prepare solutions of 125 μM and 62.5 μM. […] After the culturing for three days, 10 μL each of viable count measurement reagent SF (Nacalai Tesque Corporation) was added into each well, and after kept warm in an incubator for 80 minutes, absorbance at 450 nm was measured with a microplate leader VERSAmax (Japanese Molecular Device Company). The survival rate of cancer cells was determined assuming that the absorbance at 450 nm for the case in which compound of Example 2 was not added was 100% survival rate and the results are shown in FIG. 5.

[1] = Particle size measurement by light scattering method; assay type: physicochemical; conditions: in distilled water, 1 mg/mL and 100 μg/mL
Procedure: Particle size measurement by light scattering method was performed on the water-soluble fullerene of the present invention. The water-soluble fullerene which was synthesized with Example 1 was dissolved in distilled water so that the final concentration might be 1 mg/mL and 100 μg/mL. This solution was measured with light scattering measuring apparatus DLS-7000 (Otsuka Electronics Co., Ltd.).

[2] = Amount of active oxygen generated by light irradiation, cytochrome method; conditions: 200 μM solution mixed with cytochrome c in HBSS, light 220-800 nm, 30° C., 20 minutes
Procedure: The amount of generated active oxygen (superoxide anion, O2^−) was measured by cytochrome method. 200 μL of a solution in which cytochrome c (Nacalai Tesque Corporation) was dissolved in a Hanks' balanced salt solution (HBSS, pH 7.4, Lifetech Oriental Company) so that the final concentration might be 50 μM and 200 μL of a solution in which fullerene linked to one molecule of PEG (molecular weight 12000) prepared in Example 2 was dissolved in HBSS so that the final concentration might be 200 μM were mixed. This mixed solution was irradiated with light of various wavelengths (220-800 nm) with spectrophotofluorometer F-2000 (Hitachi, Ltd.) at 30° C. for 20 minutes. After irradiation, absorbance of the solution at 550 nm was measured with spectrophotometer DU-650 (Beckmann Company). The amount of generated O2— per minute was shown in FIG. 4 assuming a solution under light shielding condition at 30° C. for 20 minutes as control.

[3] = Amount of active oxygen generated by ultrasonic irradiation, viable count measurement reagent SF; conditions: 200 μM solution, 1 MHz, duty cycle 30%, five minutes, output 1.5, 2.0, 2.5 and 3.0 W/cm^2
Procedure: The amount of active oxygen (superoxide anion, O2^−) generated by ultrasonic irradiation was measured using viable count measurement reagent SF with reference to a report by Ukeda (DOJIN NEWS, No. 96, p 1-6, 2000). A solution in which water-soluble fullerene of Example 2 was dissolved in a Hanks' balanced salt solution so that it might be 200 μM was dispensed to 35 mm dish by 750 μL. This was mixed with 600 μL of a Hanks' balanced salt solution and 150 μL of viable count measurement reagent SF and, while stirred, irradiated with ultrasonic waves of various output (1.5, 2.0, 2.5 and 3.0 W/cm^2) with a frequency of 1 MHz, output mode (Duty cycle) 30% for five minutes from the liquid surface using an sonodynamic therapy device US-700 (Ito Ultrashort Wave Company). After irradiation, absorbance of the solution at 450 nm was measured with a spectrophotometer DU-650. The absorbance of the solution irradiated with ultrasonic wave without adding a compound at 450 nm was assumed as control and the amount of generated O2 per minute was shown in FIG. 7.

[4] = test system: mouse colon cancer Colon26; assay: In vivo anticancer activity by light irradiation in cancer bearing mice
Procedure: Administration routes were changed and anticancer activity in vivo by light irradiation was compared. Cancer bearing mice were prepared by removing a tumor block which had been passaged from mouse colon cancer Colon26 cells (provided by Cancer Chemotherapy Center of Cancer Research Society) by subcutaneous transplantation of BALB/c-nn (female, Charles River-Laboratories Japan, Inc.) and transplanting a strip piece onto the back subcutis of CDF1 mouse (female, Charles River Laboratories Japan, Inc.). The cancer bearing mice were used in the experiment in five days after transplantation in which cancer having a diameter of around 5 mm was formed in subcutis. […]
Cancer bearing mice to which water-soluble fullerene was not administered and which were not irradiated with light were used as a control group and the size of the tumor of the subcutaneous region was measured for each mouse with time. The cancer size was measured by actually measuring the major axis and the minor axis of the cancer with a slide caliper and calculated using a calculation formula reported by Winn (Natl. Cancer Inst Monogr., Vol. 2, p 113-138 (1960)).

[5] = Molecular weight of aggregate by high performance liquid chromatography (TSKgel G3000PWXL); assay type: physicochemical; conditions: HPLC, 50 mM phosphate buffer pH 6.9 with 0.3 M sodium chloride (20% acetonitrile for Example 1), PEG molecular weight markers
Procedure: Measurement of molecular weight of a fraction obtained by extracting the reaction liquid with equivalent amount of distilled water in Example 1 and a fraction after passing the aqueous layer through the cation exchange resin column was carried out using high performance liquid chromatography system 8020 (Tosoh Co., Ltd.) with TSKgel G3000PWXL (Tosoh Co., Ltd.). 50 mM phosphate buffer (pH 6.9) containing 20% acetonitrile and 0.3 M sodium chloride was used as mobile phase with a flow rate of mobile phase of 0.5 mL/min and the detection was performed at ultra-violet absorption of fullerene. Polyethylene glycols having known molecular weight (molecular weight 94,000 and 5,000) were used as molecular weight markers and the retention time was shown in FIG. 1.
As a comparative control, PEG having a methyl group at one end and an aminopropyl group at the other end and having a molecular weight 5000 was used, and the measurement of molecular weight of a fullerene-water-soluble polymer conjugate synthesized in a molar ratio of 1:10 following a method described in Example 1 of JP-A-09-235235 was carried out. 50 mM phosphate buffer (pH 6.9) containing 0.3 M sodium chloride was used as mobile phase with a flow rate of mobile phase of 1 mL/min and the detection was performed at ultra-violet absorption of fullerene. […]

| Substance | survival rate of cancer cells (RLmale 1 cells) | particle diameter of aggregate [1] | generation of O2− on light irradiation [2] | wavelength range of particularly significant O2− generation [2] [nm] | amount of active oxygen on ultrasonic irradiation [3] | increase of tumor volume ([4]; Colon26 bearing CDF1 mice, administration combined with light irradiation of tumor site, three consecutive days) | order of tumor suppression effect by administration route ([4]; subcutaneous or intra-tumor 6 mg/mL 100 μL, light 5 minutes after, intravenous 60 mg/mL 100 μL, light 24 hours after) | molecular weight of aggregate formed by self assembly [5] |
| --- | --- | --- | --- | --- | --- | --- | --- | --- |
| Fullerene Linked to One Molecule of PEG (Molecular Weight 12000) [Example 2] | significantly decreases the survival rate of cancer cells as the addition amount thereof increases | about 100 nm | generation of O2— was observed in a wide wavelength range from ultraviolet to visible light areas | 260 to 450 | the amount of active oxygen increases according to the output increases | – | – | – |
| Fullerene Linked to One Molecule of PEG (Molecular Weight 5000) [Example 1] | – | about 50 nm | – | – | – | Increase of a tumor volume was suppressed | subcutaneous administration<intra-tumor administration<intravenous administration | about 100,000 |

Source: US20080004345A1, “Novel Water-Soluble Fullerene, Process for Producing the Same and Active Oxygen Generator Containing the Fullerene” (priority 2004, published 2008)
